The experiment addresses recombinant soluble dimeric mouse H-2D^b:Ig (DimerX) protein (Mus musculus, UniProt P01899). Put plainly: biochemical. Type of experiment: binding.

recombinant soluble dimeric mouse H-2D^b:Ig (DimerX) protein, sequence (P01899 25-298 limits assumed): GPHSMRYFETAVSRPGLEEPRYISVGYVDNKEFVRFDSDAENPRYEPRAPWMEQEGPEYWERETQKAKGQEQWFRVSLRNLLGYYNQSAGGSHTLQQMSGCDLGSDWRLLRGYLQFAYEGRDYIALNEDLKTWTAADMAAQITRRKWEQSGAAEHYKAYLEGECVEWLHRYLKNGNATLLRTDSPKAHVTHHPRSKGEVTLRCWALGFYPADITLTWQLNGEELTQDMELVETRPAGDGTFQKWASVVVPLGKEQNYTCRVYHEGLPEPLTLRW

By Kd is commonly meant a measure of binding affinity in units of concentration. Take `CC[C@H](C)[C@H](NC(=O)CNC(=O)[C@@H](NC(=O)[C@H](Cc1ccccc1)NC(=O)[C@H](CCCCN)NC(=O)[C@H](CO)NC(=O)[C@H](CC(N)=O)NC(=O)[C@H](C)NC(=O)[C@H](CCCCN)NC(=O)[C@@H](NC(=O)[C@H](Cc1ccc(O)cc1)NC(=O)[C@@H](N)CCC(N)=O)[C@@H](C)CC)[C@@H](C)CC)C(=O)N[C@H](C(=O)N[C@@H](CCC(=O)O)C(=O)O)[C@@H](C)O` [TT830-843]: the Kd came to 344 ± 60 nM. Also, where the note is “pH 7.2, read-out: association rate constant ka”, the kon was 900000 M⁻¹ s⁻¹. Further, the koff (pH 7.2, read-out: dissociation rate constant kd) was 0.31 ± 0.02 s⁻¹.

These data come from publication PMC8275407 (BioMed Research International, 2021).
